The results in this text go back to PubChem BioAssay (NCI).

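Compound exposure: 48 hours, 5 concentrations, 96-well plates. At the GI50, growth is halved. TGI is the concentration that stops growth completely.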 Some results are limits rather than exact numbers.

Holding throughout (test): DTP human tumour cell line panel, 48 h
The test system of assay [1] is A498 renal.
For assay [2], the system named is A549 NSCLC.
Assay [3] concerns HCT-15 colon.
Assay [4] concerns LOX IMVI melanoma.
For assay [5], the system named is MCF7 breast.
Assay [6] has as its system MDA-MB-231 breast.
For assay [7], the system named is OVCAR-3 ovarian.
Assay [8] relates to PC-3 prostate.
Assay [9] deals with RXF 393 renal.
Assay [10] deals with T-47D breast.

Regarding `S=c1[nH]nc(Cn2c3ccc(Br)cc3c3nc4ccccc4nc32)n1C1CCCCC1`, the TGI is 58.1 µM in [1]; over 64.1 µM in assay [2]; over 100 µM in assay [3]; 23 µM in assay [4]; over 100 µM in assay [5]; over 75.2 µM in [6]. Further, the TGI in assay [7] was over 59.7 µM; in assay [8], over 66.9 µM; in assay [9], 70.1 µM; in [10], over 100 µM.

With `Nc1c(S(N)(=O)=O)cc(S(N)(=O)=O)cc1S(N)(=O)=O`, the TGI in [1], in [2], in assay [3], in assay [4], in assay [5] and in [6] was over 100 µM each time. Also, the TGI in [7], in assay [8], in assay [9] and in [10] was over 100 µM in each case.

As to `CCCCCCCCCCCCNC(=O)CCC(NC(=O)c1ccc(N(C)Cc2cnc3nc(N)nc(N)c3n2)cc1)C(=O)NCCCCCCCCCCCC` (stereo unspecified), the TGI in assay [1] was over 100 µM; in assay [2] it was over 100 µM; in assay [3] it was over 100 µM; in assay [4] it was 30.7 µM; in assay [5], over 100 µM; in assay [6] it was over 100 µM. Moreover, the TGI in [7] is over 100 µM; in [8], over 100 µM; in assay [9], 43.3 µM; in [10], 61.5 µM.

`Clc1cc(C(c2cc(Cl)sc2Cl)c2cc(Cl)sc2Cl)c(Cl)s1`: the TGI in assay [1], in [2], in [3], in assay [4], in assay [5] and in [6] was over 100 µM throughout. Further, the total growth inhibition concentration (TGI) in assay [7], in assay [8], in assay [9] and in [10] was over 100 µM each time.

For `O=P(OCc1ccccc1)(OCc1ccccc1)C(O)/C=C/c1ccccc1` (stereo unspecified), the TGI in [1] is 35.2 µM; in assay [2], over 100 µM; in [3] it was over 100 µM; in assay [4], 31.5 µM; in assay [5], over 100 µM; in assay [6], 56.4 µM. Moreover, the TGI in assay [7] was 43.6 µM; in assay [8], over 100 µM; in assay [9], over 100 µM; in [10], 88.3 µM.

Consider `C[N+]1(CCN=C=NC2CCCCC2)CCOCC1`, for which the TGI in [1], in assay [2], in assay [3], in assay [4], in assay [5] and in assay [6] was over 100 µM throughout. The total growth inhibition concentration (TGI) in assay [7], in [8], in assay [9] and in [10] was over 100 µM each time.

For the molecule `Cc1cc(S(=O)(=O)Nc2n[nH]c(Nc3ccccc3)n2)c(SCC(=O)O)cc1Cl`, the total growth inhibition concentration (TGI) in assay [1], in [2], in assay [3], in assay [4], in [5] and in [6] was over 100 µM in each case. For the same molecule, the TGI in [7], in [8], in [9] and in [10] was over 100 µM each time.

Take `COc1cc2c3c(cc(Cl)nc3c1OC)C(=O)C(=O)N2`: the TGI in assay [1] came to 30.2 µM; in assay [2], 38.6 µM; in assay [3], 40.8 µM; in [4], 25.9 µM; in [5], 4.58 µM; in [6] it was 3.83 µM. The TGI in assay [7] is 32.5 µM; in [8], 27.6 µM; in [9] it was 27.5 µM; in assay [10], over 100 µM.

Regarding `CCCCCCCCCCCCOCCOCCOCCOCCOCCOCC(=O)NC(Cc1ccccc1)C(=O)Oc1ccc([N+](=O)[O-])cc1` (stereo unspecified), the TGI in assay [1] was 75.6 µM; in assay [2], over 100 µM; in [3] it was over 100 µM; in assay [4] it was over 100 µM; in assay [5], over 100 µM; in assay [6] it was over 100 µM. Also, the TGI in assay [7] is 51.9 µM; in [8] it was over 100 µM; in [9] it was over 100 µM; in [10], over 100 µM.

On to `C=C1C[C@@H]2CC[C@@]34C[C@H]5O[C@H]6[C@@H](O3)[C@H]3O[C@H](CC[C@@H]3O[C@H]6[C@H]5O4)CC(=O)C[C@@H]3[C@@H](OC)[C@@H](C[C@H](O)CN)O[C@H]3C[C@H]3O[C@@H](CC[C@@H]1O2)C[C@@H](C)C3=C`, for which the TGI in assay [1] is 0.245 µM; in assay [2] it was over 1 µM; in assay [3], over 0.76 µM; in assay [4], over 0.533 µM; in assay [5], over 1 µM; in assay [6] it was 0.087 µM. For the same molecule, the TGI in assay [7] was 0.000836 µM; in assay [8], over 0.12 µM; in assay [10] it was over 1 µM. In addition, the figures for the GI50 in assay [7] and in assay [9] were 0.0002 µM and 0.00255 µM, respectively.

`O=P1(C(O)/C=C/c2ccccc2)N(Cc2ccccc2)[C@@H]2CCCC[C@H]2N1Cc1ccccc1` (stereo partly specified): the TGI was 11.2 µM in [1]; 43 µM in [2]; 43.8 µM in [3]; 13.7 µM in assay [4]; 15.1 µM in [5]; 26.2 µM in [6]. Also, the concentration for total growth inhibition (TGI) was determined as 27.8 µM in assay [7], 11.3 µM in assay [8], 23.5 µM in assay [9] and 35.7 µM in [10].
